The conditions of test [1]: Drugs of the Future, 8, 1023, 1983; cited from earlier work.
Another test relates to tumor cell growth. Conditions: in rats; Ger. Offen. 2931, 573; cited from earlier work.
Test [2] addresses T1, 5-lipoxygenase (Rattus norvegicus, UniProt P12527).
T1 construct: 20,000x g supernatant from homogenized RBL-1 cells; endogenous in cells; host or cells: RBL-1 cells (20,000x g supernatant of homogenate)
T1 sequence (P12527 1-673): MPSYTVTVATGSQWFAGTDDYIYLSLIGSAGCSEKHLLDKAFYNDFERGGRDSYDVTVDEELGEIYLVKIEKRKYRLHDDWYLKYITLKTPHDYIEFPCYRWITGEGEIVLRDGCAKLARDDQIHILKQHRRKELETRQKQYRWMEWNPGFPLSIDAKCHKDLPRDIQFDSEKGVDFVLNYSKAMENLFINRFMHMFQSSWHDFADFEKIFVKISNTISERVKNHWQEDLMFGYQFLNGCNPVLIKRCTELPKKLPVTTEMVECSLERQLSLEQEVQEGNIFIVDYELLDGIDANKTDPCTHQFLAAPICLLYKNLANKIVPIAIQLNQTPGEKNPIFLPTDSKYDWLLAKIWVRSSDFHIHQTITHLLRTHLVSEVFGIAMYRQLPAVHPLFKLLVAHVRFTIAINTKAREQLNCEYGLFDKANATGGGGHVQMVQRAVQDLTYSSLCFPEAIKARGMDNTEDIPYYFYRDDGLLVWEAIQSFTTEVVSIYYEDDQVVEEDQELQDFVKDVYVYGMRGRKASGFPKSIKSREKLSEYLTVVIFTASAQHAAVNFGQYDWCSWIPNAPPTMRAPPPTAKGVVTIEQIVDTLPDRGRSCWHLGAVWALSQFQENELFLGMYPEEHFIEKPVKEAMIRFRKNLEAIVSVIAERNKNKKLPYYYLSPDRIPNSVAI
As to the kind of experiment: Inhibition of 5-lipoxygenase activity (20,000x g supernatant from homogenized RBL-1 cells). Conditions: In vitro, 20,000x g supernatant from homogenized RBL-1 cells. Type of test: biochemical. The method, then:
Inhibition of 5-lipoxygenase activity was determined using the 20,000x g supernatant from homogenized RBL-1 cells in a similar manner as that described by Dyer and coworkers (Dyer, R.D.; Haviv, F,; Hanel, A. M.; Bornemier, D. A.; Carter, G. W. Fed. Proc., Fed. Am. Soc. Exp. Biol. 1984, 43, 1462A). IC50 values (concentration of compound producing 50% enzyme inhibition) were calculated by linear regression analysis of percentage inhibition versus log inhibitor concentration plots.

Test [3] relates to 5-lipoxygenase. Conditions: Young, Dyer, Carter, Federation Proceedings 44(4):904, 1985; cited from earlier work.

Each structure is given as a SMILES string.

This is an account of results in US4963541A, “Pyrimido-pyrimidine lipoxygenase inhibiting compounds” (Abbott Laboratories, priority 1989, dated 1990).

By IC50 is commonly meant the midpoint of a concentration-inhibition curve.

For the compound `CCN(CC)c1nc(N(CCO)CCOC)nc2c(N(CC)CC)nc(N(CCO)CCOC)nc12` [2,6-bis-(2-hydroxyethyl-2-methoxyethylamino)-4,8-bis-(diethylamino)pyrimido[5,4-d]pyrimidine], the “reported to be a hypertensive agent” value in test [1] is “hypertensive agent”.
Consider `OCCN(CCO)c1nc(N2CCCCC2)c2nc(N(CCO)CCO)ncc2n1` [2,6-bis-(diethanolamino)-4-piperidinopyrimido[5,4d]pyridimine], for which the “inhibit tumor cell growth” value with tumor cell growth is “shown to inhibit tumor cell growth in rats”.
At 5-lipoxygenase [2], `CN(CCO)c1nc(N2CCCCC2)c2nc(N(C)CCO)nc(N3CCCCC3)c2n1` [Example 1, 2,6-bis-2-(Methylamino)ethanol-4,8-bis-N-piperidinopyrimido[5,4-d]pyrimidine] gave an IC50 of 340 nM.
For the compound `OCCNc1nc(N2CCCCC2)c2nc(NCCO)nc(N3CCCCC3)c2n1` [Example 2, 2,6-bis-Aminoethanol-4,8-bis-N-piperidinopyrimido[5,4-d]pyrimidine], it took 2900 nM to reach half-maximal inhibition on 5-lipoxygenase [2] (IC50).
For the compound `CN(CCO)c1nc(N2CCCCCC2)c2nc(N(C)CCO)nc(N3CCCCCC3)c2n1` [Example 3, 2,6-bis-2-(Methylamino)ethanol-4,8-bis-N-perhydroazepinepyrimido-[5,4-d]pyrimidine], half-maximal inhibition at 5-lipoxygenase [2] (IC50) was put at 300 nM.
On 5-lipoxygenase [2], `CN(CCO)c1nc(N2CCCCCCC2)c2nc(N(C)CCO)nc(N3CCCCCCC3)c2n1` [Example 4, 2,6-bis-2-(Methylamino)ethanol-4,8-bis-N-perhydroazocinepyrimido[5,4-d]pyrimidine] showed an IC50 of 920 nM.
On to `OCCN(CCO)c1nc(N2CCCCC2)c2nc(N(CCO)CCO)nc(N3CCCCC3)c2n1` [dipyridamole, 2,6-bis-(diethanolamino)-4,8-dipiperidinopyrimido[5,4-d]pyrimidine], for which the “reported to be an inhibitor of 5-lipoxygenase” value with 5-lipoxygenase [3] is recorded as “inhibitor of 5-lipoxygenase”.
